The text below walks through data of EP2272817A1, “PAI-1 INHIBITOR” (Institute of Medicinal Molecular Design, Inc., priority 2008, dated 2009).

Molecules are shown by their SMILES. Where two headings read alike, the source gives them in different places.

Assay [1] has as its target T1, recombinant human PAI-1 (Homo sapiens, UniProt P05121). Put plainly: Test Example 2: Human PAI-1 Inhibitory Activity (pH 7.4 HEPES buffer, 10 minutes incubation with two-chain tPA). It is filed as biochemical. Also noted: purchased Molecular Innovations, Inc. As to conditions: read-out: Inhibition Rate of PAI-1 Activity (%). The protocol: 0.1 M HEPES, 0.1 M NaCl. 1 mM EDTA. 0.1 % Polyethylene glycol 8,000 (Hampton Research Corporation),
2 mM Dimethyldecylphoshine oxide [Apo-10] (Fluka Corporation)

Another assay relates to Rat AV Shunt Model. Description: Test Example 5: Anti-thrombotic Activity (Rat AV Shunt Model), thrombus weight. It is filed as in vivo, Crlj: CD (SD) rats. As to conditions: orally for 4 days, male rats, n=5, average ± S.E., vehicle 72.7±2.7. The protocol:
AV shunt model using 7-week old male Crlj: CD (SD) rats were prepared, and anti thrombotic activities when the compounds according to the present invention were administered orally were examined.
Required amount of the test compounds were weighed and suspended by adding 0.5 % CMC (carboxymethylcellulose)-Na solution little by little, and the solutions (10 mg/kg or 30 mg/kg solution) were prepared so that their final concentration became 2 mg/ml or 6 mg/ml using a graduated cylinder. 5 ml was prepared for 1 course.
To 7-week old Crlj: CD (SD) male rats, 5 ml/kg of vehicle (0.5 % CMC-Na solution) or 5 ml/kg of the administering solution of the test compound (10 mg/kg or 30 mg/kg) were administered orally for 4 days. The administration on the 4th day was carried out about 1 hour before the following perfusion start.
On the connected part where the silk thread was through, parafilm was wrapped around to avoid blood leakage. Rats were anesthetized with pentobarbital (50 mg/kg; intraperitoneally). Saline was filled in the above catheter, and each of the ends of the catheter was inserted in right carotid artery and […], respectively, and blood was circulated. 30 minutes later, the catheter was pinched with forceps to stop blood flow, and tube parts where the silk thread was through were cut and removed. The silk thread was carefully removed from the tubes, remaining wet weight was weighed after removing the liquid phase with filter paper, and further subtraction of the weight of the silk thread, gave the thrombus weight.
For the thrombus weight in each group, an average vale ± standard error (S.E.) was calculated. For the significance test between the vehicle administered group and the compound according to the present invention administered group, Dunnett's multiple comparison was carried out (significance level 5 %). For the test, the SAS System Release 8.2 (TS2MO) for Windows (Registered Trademark) (SAS Institute Inc.) and its coorperative system EXSAS Ver. 7.10 (Arm Systex Co. Ltd.) were employed.

The target of assay [2] is T1, recombinant human PAI-1. Description: biochemical.
Procedure: To this solution, 6 µl of 80 nM recombinant human PAI-1 (Molecular Innovations, Inc.) solution prepared with Tris buffer was added, and the plate was incubated for 5 minutes at room temperature. Furthermore, 30 µl of 800 IU/ml two-chain tPA (Activity Standard; American diagnostica, inc.) prepared with Tris buffer was added, and the mixed solution was incubated for 15 minutes at room temperature. Then, 30 µl of 400 µM fluorogenic substrate (Pyr-Gly-Arg-MCA; Peptide Institute, Inc.) for tPA prepared with Tris buffer was added and reacted for 30 minutes at room temperature.
50 mM Tris, 150 mM NaCl, 10 µg/ml BSA, 0.01 % Tween80 (SIGMA-ALDRICH Corporation)
In the next assay the target is T2, recombinant rat PAI-1 (Rattus norvegicus, UniProt P20961).
T2 sequence (P20961 24-402): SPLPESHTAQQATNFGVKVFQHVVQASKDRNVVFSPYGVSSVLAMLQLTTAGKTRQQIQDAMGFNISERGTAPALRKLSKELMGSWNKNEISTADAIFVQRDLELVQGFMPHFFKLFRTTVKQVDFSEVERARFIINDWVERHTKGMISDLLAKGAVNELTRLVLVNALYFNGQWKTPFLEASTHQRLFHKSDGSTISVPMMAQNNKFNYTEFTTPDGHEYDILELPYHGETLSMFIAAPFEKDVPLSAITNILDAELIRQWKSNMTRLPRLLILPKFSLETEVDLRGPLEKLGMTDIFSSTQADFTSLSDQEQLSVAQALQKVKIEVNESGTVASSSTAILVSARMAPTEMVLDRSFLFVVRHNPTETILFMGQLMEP
Put plainly: biochemical. As to conditions: read-out: Inhibition Rate of PAI-1 Activity (%).

For assay [3], the target named is T1, recombinant human PAI-1. Put plainly: Test Example 4: Human PAI-1 Inhibitory Activity (amount of PAI-1 bound to plate-coated one-chain tPA, ELISA). It is filed as biochemical. On the set-up: purchased Molecular Innovations, Inc. As to conditions: human PAI-1 bound to tPA, read-out: Inhibition Rate of PAI-1 Activity (%); for inhibition at 0.3 µM: Compound Concentration 0.3µM; for inhibition at 1 µM: Compound Concentration 1µM; for inhibition at 3 µM: Compound Concentration 3µM. A digest of the protocol: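 Compound (final 0.1 to 3.0 µM, 0.2% DMSO) preincubated 15 min on ice with recombinant human PAI-1 (50 ng/ml) in phosphate buffer pH 6.6, then 60 min at room temperature on one-chain tPA-coated plates. Bound PAI-1 detected by anti-PAI-1 antibody, AP-labelled secondary and p-nitrophenyl phosphate at 405 nm; quantified against PAI-1 standard curve, inhibition relative to compound-free PAI-1.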
On the technique in general: ELISA stands for enzyme-linked immunosorbent assay.

Setting [4] is: read-out: Inhibition Rate of PAI-1 Activity (%), Compound Concentration 5µM.
Where [5] appears, read: read-out: Inhibition Rate of PAI-1 Activity (%), Compound Concentration 10µM.

T1 sequence (P05121 24-402): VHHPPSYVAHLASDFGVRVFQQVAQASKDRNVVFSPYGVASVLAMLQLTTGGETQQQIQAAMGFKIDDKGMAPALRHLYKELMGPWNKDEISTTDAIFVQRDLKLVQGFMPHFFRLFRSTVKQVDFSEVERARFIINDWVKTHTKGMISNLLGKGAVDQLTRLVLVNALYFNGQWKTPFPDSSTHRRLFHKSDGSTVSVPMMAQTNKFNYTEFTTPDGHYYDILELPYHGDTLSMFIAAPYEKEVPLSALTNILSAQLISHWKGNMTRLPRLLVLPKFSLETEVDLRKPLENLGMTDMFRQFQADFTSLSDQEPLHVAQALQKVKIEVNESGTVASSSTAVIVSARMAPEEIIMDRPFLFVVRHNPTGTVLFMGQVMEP

For `CC(C)(C)c1ccc(COc2ccc(-c3ccc(OC(F)(F)F)cc3)cc2CCC(=O)O)cc1` [Compound 5], at recombinant human PAI-1 [1], the inhibition at 0.1 µM was found to be 2%, the inhibition at 0.3 µM worked out at 13%, the inhibition at 1 µM came out at 34% and the inhibition at 3 µM was found to be 90%. The “Thrombus Weight” value in the assay on Rat AV Shunt Model (Dose 10 mg/kg/day) came out at 57.5 ± 5.0 mg. The inhibition at 5 µM on recombinant human PAI-1 [2] (read-out: Inhibition Rate of PAI Activity (%), Compound Concentration 5µM) is 87%. In addition, on recombinant human PAI-1 [2] (read-out: Inhibition Rate of PAI Activity (%), Compound Concentration 10µM), the inhibition at 10 µM amounted to 95%. Further, at recombinant rat PAI-1, the inhibition at 0.3 µM is 5%, the inhibition at 1 µM was 15%, the inhibition at 3 µM came out at 52% and the inhibition at 10 µM worked out at 93%. In addition, on recombinant human PAI-1 [3], the inhibition at 0.3 µM was found to be 9%, the inhibition at 1 µM was found to be 23% and the inhibition at 3 µM was found to be 67%.
For the compound `CN(C(=O)C(=O)O)c1cc(-c2ccc(OC(F)(F)F)cc2)ccc1OCc1ccc(C(C)(C)C)cc1` [Compound 17], in the assay on Rat AV Shunt Model (Dose 30 mg/kg/day), the “Thrombus Weight” value stood at 60.4 ± 3.8 mg.
As for `CC(C)(C)c1ccc(CN(C(=O)C(=O)O)c2ccc(-c3ccc(OC(F)(F)F)cc3)cc2)cc1` [Compound 129], at recombinant human PAI-1 [1], the inhibition at 0.1 µM is 1%, the inhibition at 0.3 µM was 3%, the inhibition at 1 µM turned out to be 19% and the inhibition at 3 µM worked out at 86%. Also, the “Thrombus Weight” value in the assay on Rat AV Shunt Model (Dose 10 mg/kg/day) came out at 56.7 ± 3.8 mg. For the same compound, the inhibition at 5 µM at recombinant human PAI-1 [2] (setting [4]) turned out to be 75%. For the same compound, on recombinant human PAI-1 [2] (setting [5]), the inhibition at 10 µM stood at 95%. Moreover, at recombinant rat PAI-1, the inhibition at 0.3 µM was 2%, the inhibition at 1 µM worked out at 14%, the inhibition at 3 µM was 46% and the inhibition at 10 µM came to 90%. In addition, at recombinant human PAI-1 [3], the inhibition at 0.3 µM came to 5%, the inhibition at 1 µM is 15% and the inhibition at 3 µM came to 19%.
As for `CCCCC(c1ccc(C(C)(C)C)cc1)N(C(=O)C(=O)O)c1ccc(-c2ccc(OC(F)(F)F)cc2)cc1` (stereo not drawn) [Compound 221], at recombinant human PAI-1 [1], the inhibition at 0.1 µM came to 0%, the inhibition at 0.3 µM turned out to be 6%, the inhibition at 1 µM worked out at 55% and the inhibition at 3 µM is above 99%. For the same compound, the inhibition at 5 µM at recombinant human PAI-1 [2] (setting [4]) came out at 80%. On recombinant human PAI-1 [2] (setting [5]), the inhibition at 10 µM stood at 86%. Moreover, on recombinant rat PAI-1, the inhibition at 0.3 µM worked out at 10%, the inhibition at 1 µM came to 37% and the inhibition at 3 µM is 89%. Further, on recombinant human PAI-1 [3], the inhibition at 0.3 µM was determined as 0%, the inhibition at 1 µM came to 13% and the inhibition at 3 µM was 38%.
Turning to `CCCCCOc1ccc(-c2ccc(OC(F)(F)F)cc2)cc1N(CCCCc1ccccc1)C(=O)C(=O)O` [Compound 226], at recombinant human PAI-1 [1], the inhibition at 0.1 µM came to 0%, the inhibition at 0.3 µM was 17%, the inhibition at 1 µM came to 89% and the inhibition at 3 µM came out at 99%. Besides, the inhibition at 5 µM on recombinant human PAI-1 [2] (setting [4]) stood at 85%. Moreover, the inhibition at 10 µM at recombinant human PAI-1 [2] (setting [5]) is 92%. For the same compound, at recombinant rat PAI-1, the inhibition at 0.3 µM is 9%, the inhibition at 1 µM worked out at 49%, the inhibition at 3 µM was determined as 92% and the inhibition at 10 µM was above 99%. Besides, on recombinant human PAI-1 [3], the inhibition at 0.3 µM was 11%, the inhibition at 1 µM was 26% and the inhibition at 3 µM was determined as 65%.
